Key:
[1] = tested on: Arabidopsis T1 seeds, PPX2L Susceptible plasmid; assay: T1 seed germination on herbicide-containing medium, PPX2L Susceptible plasmid; type: in vivo, Arabidopsis thaliana; settings: for Number of Germinated Seedlings on Imazethapyr: approximately 1000 seeds
Experimental: (§1) Reverse transcription PCR (RT-PCR) products from resistant and sensitive biotypes were used as template for cloning the resistant and sensitive genes through PCR amplifications. These amplifications were performed using the ligation independent cloning (LIC) adapted oligonucleotide primers specific to PPX2L, P1 and P2, and cloned into the LIC site of a plant transformation vector, using techniques known to those skilled in the art. These primers used in these experiments were as follows: P1, […], SEQ ID NO:49; P2, […], SEQ ID NO:50; P3, […], SEQ ID NO:51; P4, […], SEQ ID NO:52; P5, […], SEQ ID NO:53; and P6, […], SEQ ID NO:54. These plant transformation vectors contained an imidazolinone tolerant Arabidopsis AHAS large subunit gene under the control of the actin promoter and octopine synthase terminator, which allowed selection on Pursuit (imazethapyr) for all transformants, especially for selection of lactofen […] transformants. For expression of the resistant and sensitive genes in Arabidopsis, the coding sequences for each resistant or sensitive gene were inserted after the parsley ubiquitin promoter and before the nopaline synthase terminator. Several clones each of susceptible and resistant PPX2L were obtained from different biotype isolates and each was sequenced.
(§2) Three vector plasmids were constructed: VC-MBW101-1, containing the susceptible version of the PPX2L gene (SEQ ID NO:47); VC-MBW102-1, containing the resistant version of the PPX2L gene (SEQ ID NO:25); and VC-MBW103-1, containing the SRS version of the PPX2L gene (SEQ ID NO:45); All three of these plasmids were transformed into Agrobacterium tumefaciens. as follows:
(§3) For the transformation, 6-week-old Arabidopsis plants, which had just started flowering were immersed for 10 seconds into the above-described agrobacterial suspension which had previously been treated with 10 μl Silwett L77 (Crompton S. A., Osi Specialties, CH). The method is described in Clough and Bent. 1998. Plant J. 16:735-743.
(§4) These T1 generation seeds, which represented a collection of a few transformed seeds in a population of untransformed seeds, were sterilized by liquid sterilization (rinsing in a solution of 400 mL of ddH2O+100 mL of bleach+250 uL of 20% SDS, followed by rinsing in sterile distilled water).
(§5) These T1 seeds were put into 0.8% agarose and plated onto MS media with 1% sucrose, Cefotaxmine (500 ug/mL) and benomyl (2 ug/mL). For selection of transformants, these contained either 100 nM Pursuit (imazethapyr), 70 nM Cobra (lactofen) or 125 nM Cobra. Arabidopsis ecotype Columbia-0 (Co10) was also plated as a control on all types of plates and the imidazolinone tolerant mutant csr1-2 was plated on Pursuit plates as a positive control. The seeds were stratified on the plates for three days at 4° C.
(§6) The plates were then incubated in a Percival Scientific (Perry, Iowa) growth chamber at 21-22° C. and 15 hours of light for six days and scored for viable seedlings on the selective plates.
(§7) The numbers of seeds were the raw counts of actual seeds on the selection plates. The numbers of seedlings were the number of green seedlings found on each plate, indicative of resistance to the selective agent (lactofen or imazethapyr). If there were no seedlings, there were no resistant plants. Only the “resistant” forms of PPX2L conferred lactofen tolerance, confirming that the isolated PPX2L coding sequence from the herbicide resistant waterhemp was sufficient to confer the PPO-inhibiting herbicide resistance phenotype on transgenic plants into which the plant expressible sequence was introduced. Plants obtained from the imazethapyr selection indicated the presence of transformed seeds with the sensitive form of PPX2L. Without wishing to be bound by any particular theory, the single seedling on transformation set 5 is believed to have been a stray resistant transformant.

[2] = tested on: Arabidopsis T1 seeds, PPX2L Resistant plasmid; assay: T1 seed germination on herbicide-containing medium, PPX2L Resistant plasmid; type: in vivo, Arabidopsis thaliana; settings: for Number of Germinated Seedlings on Imazethapyr: approximately 1000 seeds
Experimental: as §1, §2, §3, §4, §5, §6, §7

[3] = tested on: A. tuberculatus S (susceptible) parent; assay: Herbicide dose-response on whole plants, S parent; type: in vivo, Amaranthus tuberculatus (waterhemp); settings: S line
[4] = tested on: Arabidopsis T1 seeds, PPX2L "SRS" plasmid; assay: T1 seed germination on herbicide-containing medium, PPX2L SRS plasmid; type: in vivo, Arabidopsis thaliana; settings: for Number of Germinated Seedlings on Imazethapyr: approximately 1000 seeds
Experimental: as §1
In addition, a chimeric “SRS” gene (see SEQ ID NO:45), which has the 5′ end of the susceptible coding sequence up to the unique XhoI site, the internal XhoI to DraIII fragment of the resistant coding sequence containing the resistance mutation, and the 3′ end of the susceptible from the unique DraIII site to the stop codon, was produced by amplifying sensitive RT-PCR template with P1 and P3 as well as with P6 and P2. Resistant template was also amplified with P4 and P5. These amplicons were digested with XhoI and DraIII and purified, then ligated. The ligation reaction was cloned into the LIC site of the plant transformation vector, as above.
as §2, §3, §4, §5, §6
The numbers of seeds were the raw counts of actual seeds on the selection plates. The numbers of seedlings were the number of green seedlings found on each plate, indicative of resistance to the selective agent (lactofen or imazethapyr). If there were no seedlings, there were no resistant plants. […]

[5] = tested on: Arabidopsis Columbia-0 (untransformed control); assay: Seed germination on herbicide-containing medium, untransformed control; type: in vivo, Arabidopsis thaliana
Experimental: as §5, §6, §7

## CCOC(=O)C(C)OC(=O)c1cc(Oc2ccc(C(F)(F)F)cc2Cl)ccc1[N+](=O)[O-] (racemic) [Lactofen, (±)-2-ethoxy-1-methyl-2-oxoethyl 5-{2-chloro-4-(trifluoromethyl)phenoxy}-2-nitrobenzoate]
[1]; transformation set 4-291
  Calculated Number of Germinated Seedlings per 1000 Seeds for both rates of Lactofen: 0
[1]; transformation set 4-291, 500 seeds plated
  Number of Germinated Seedlings on 70 nM lactofen: 0
[1]; transformation set 4-291, 680 seeds plated
  Number of Germinated Seedlings on 125 nM Lactofen: 0
[1]; transformation set 5
  Calculated Number of Germinated Seedlings per 1000 Seeds for both rates of Lactofen: 1
[1]; transformation set 5, 460 seeds plated
  Number of Germinated Seedlings on 70 nM lactofen: 1
[1]; transformation set 5, 764 seeds plated
  Number of Germinated Seedlings on 125 nM Lactofen: 0
[2]; transformation set 1
  Calculated Number of Germinated Seedlings per 1000 Seeds for both rates of Lactofen: 7
[2]; transformation set 1, 560 seeds plated
  Number of Germinated Seedlings on 125 nM Lactofen: 4
[2]; transformation set 1, 640 seeds plated
  Number of Germinated Seedlings on 70 nM lactofen: 4
[2]; transformation set 2
  Calculated Number of Germinated Seedlings per 1000 Seeds for both rates of Lactofen: 3
[2]; transformation set 2, 1152 seeds plated
  Number of Germinated Seedlings on 125 nM Lactofen: 4
[2]; transformation set 2, 1276 seeds plated
  Number of Germinated Seedlings on 70 nM lactofen: 3
[2]; transformation set 3
  Calculated Number of Germinated Seedlings per 1000 Seeds for both rates of Lactofen: 2
[2]; transformation set 3, 980 seeds plated
  Number of Germinated Seedlings on 70 nM lactofen: 3
[2]; transformation set 3, 1664 seeds plated
  Number of Germinated Seedlings on 125 nM Lactofen: 1
[3]; 10 DAT
  GR50 (growth reduction by 50%) S: 0.2 g ai ha^−1
[3]; 15 DAT
  GR50 (growth reduction by 50%) S: 0.4 g ai ha^−1
[4]; transformation set 4-390
  Calculated Number of Germinated Seedlings per 1000 Seeds for both rates of Lactofen: 9
[4]; transformation set 4-390, 1160 seeds plated
  Number of Germinated Seedlings on 125 nM Lactofen: 6
[4]; transformation set 4-390, 1176 seeds plated
  Number of Germinated Seedlings on 70 nM lactofen: 14
[4]; transformation set 4-414
  Calculated Number of Germinated Seedlings per 1000 Seeds for both rates of Lactofen: 5
[4]; transformation set 4-414, 880 seeds plated
  Number of Germinated Seedlings on 125 nM Lactofen: 2
[4]; transformation set 4-414, 1036 seeds plated
  Number of Germinated Seedlings on 70 nM lactofen: 7
[5]
  Calculated Number of Germinated Seedlings per 1000 Seeds for both rates of Lactofen: 0
[5]; 600 seeds plated
  Number of Germinated Seedlings on 125 nM Lactofen: 0
[5]; 884 seeds plated, six days
  Number of Germinated Seedlings on 70 nM lactofen: 0

## O=C(O)c1cc(Oc2ccc(C(F)(F)F)cc2Cl)ccc1[N+](=O)[O-] [Acifluorfen, 5-{2-chloro-4-(trifluoromethyl)phenoxy}-2-nitrobezoic acid]
[3]; 10 DAT
  GR50 (growth reduction by 50%) S: 1.6 g ai ha^−1

## CCc1cnc(C2=NC(C)(C(C)C)C(=O)N2)c(C(=O)O)c1 (centres unmarked) [Imazethapyr]
[1]; transformation set 4-291, 100 nM Pursuit
  Number of Germinated Seedlings on Imazethapyr: 4
[1]; transformation set 5, 100 nM Pursuit
  Number of Germinated Seedlings on Imazethapyr: 12
[2]; transformation set 1, 100 nM Pursuit
  Number of Germinated Seedlings on Imazethapyr: 9
[2]; transformation set 2, 100 nM Pursuit
  Number of Germinated Seedlings on Imazethapyr: 9
[2]; transformation set 3, 100 nM Pursuit
  Number of Germinated Seedlings on Imazethapyr: 6
[4]; transformation set 4-390, 100 nM Pursuit
  Number of Germinated Seedlings on Imazethapyr: 10
[4]; transformation set 4-414, 100 nM Pursuit
  Number of Germinated Seedlings on Imazethapyr: 11
[5]; 100 nM Pursuit, approximately 1000 seeds
  Number of Germinated Seedlings on Imazethapyr: 0

From patent US7842856B2, “Herbicide resistance gene, compositions and methods” (The Board of Trustees of the University of Illinois, priority 2005, dated 2010)
